Patent EP4132503B1, “PROBENECID FOR USE IN THE TREATMENT OF SARS-CO-V2 INFECTIONS” (priority 2020, dated 2021)
Read-outs that look alike come from different tables or passages of the source.

Columns and labels:
[1] = test system: SARS-CoV-2 (Isolate USA-WA1/2020); assay type: cell-based; settings: 24 h pre-treatment, compared to DMSO treated infected control
SARS-CoV-2 [2] = assay type: cell-based; settings: post-treatment, added after 1 hour infection, compared to DMSO treated infected control, Figure 3
SARS-CoV-2 [3] = assay type: cell-based
SARS-CoV-2 [4] = settings: for patients converted to negative SARS-CoV-2 test (of the 10 patients enrolled): 500 mg twice daily
[5] = cited from earlier work
[6] = test system: SARS-CoV-2 (Isolate USA-WA1/2020); assay: Prophylactic and therapeutic treatment of SARS-CoV-2 infected hamsters; lung viral titer (TCID50 and plaque assay)
[7] = prophylactic and therapeutic conditions, both cell types (NHBE and Vero)

SMILES: CCCN(CCC)S(=O)(=O)c1ccc(C(=O)O)cc1 [probenecid, 4-[(dipropylamino)sulfony1] benzoic acid]
- reduction in plaque formation ([1]; 0.0001µM, another experiment, 6 well plate, Figure 2): 50%
- reduction in plaque formation ([1]; 0.1µM, Vero E6, MOI 0.01, 4 days, Figure 1): 72%
- reduction in plaque formation ([1]; 5µM, Vero E6, MOI 0.01, 4 days, Figure 1): ~ 89%
- reduction in plaque formation ([1]; 5µM, another experiment, 6 well plate, Figure 2): ~ 93%
- reduction in plaque formation (SARS-CoV-2 [2]; 0.0001µM): 40%
- reduction in plaque formation (SARS-CoV-2 [2]; 5µM): ~ 90%
- IC50s compared with remdesivir (SARS-CoV-2 [3]; [7]): lower
- IC90s compared with remdesivir (SARS-CoV-2 [3]; [7]): lower
- virus plaque formation (SARS-CoV-2 [3]; treated prophylactically or therapeutically, compared to controls): dose-dependent decrease
- patients converted to negative SARS-CoV-2 test (of the 10 patients enrolled) (SARS-CoV-2 [4]; Day 4 of treatment): 2
- patients converted to negative SARS-CoV-2 test (of the 10 patients enrolled) (SARS-CoV-2 [4]; Day 9 of treatment): four
- patients converted to negative SARS-CoV-2 test (of the 10 patients enrolled) (SARS-CoV-2 [4]; Day 14 of treatment): nine
- viral shedding of SARS-CoV-2 (SARS-CoV-2 [4]; compared to literature pooled median of 17.2 days, all but one patient (Patient 003)): < 17.2 days
- patient symptoms (SARS-CoV-2 [4]; no scored grading system used, shortness of breath and loss of taste or smell persisted): showed improvement
- coagulation and inflammatory markers (SARS-CoV-2 [4]; with the exception of one patient (Patient 001)): mostly maintained within normal ranges
- lipid solubility [5]: highly lipid soluble
- effectiveness of the two doses compared ([6]; 2 mg and 200 mg treatment, single dose): similarly effective
- lung virus titers ([6]; day 3 post-infection, all probenecid-treated hamsters (2 or 200 mg/kg, prophylactic or therapeutic, single dose), PBS-treated 1E9+): 1E5
- lung virus ([6]; day 7 post infection): no detectable lung virus
- prophylactic compared with therapeutic treatment ([6]; hamster, in vivo): worked similarly
- decrease of lung virus titers ([6]; hamsters, compared to PBS-treated): several logs
